The values that follow come from patent publication US20180098977A1, “SCALABLE MICROPARTICULATE FORMULATIONS CONTAINING POLYMORPHIC NIMODIPINE FORM 2 PREPARED BY A SOLVENT EVAPORATION PROCESS” (Edge Therapeutics, Inc., priority 2016, published 2018).

The conditions of series [1]: at 25° C.; cited from earlier work.
Series [2] relates to subjects with an aneurysmal subarachnoid hemorrhage (aSAH). The series is described as follows: NEWTON Phase 1/2 study, efficacy and safety. Type of series: in vivo, human. The text has this: NEWTON (Nimodipine microparticles to Enhance recovery While reducing TOxicity after subarachNoid hemorrhage) was a multicenter, randomized, controlled, open-label Phase 1/2 study evaluating the safety, tolerability and pharmacokinetics of escalating doses of a polymeric nimodipine microparticle suspended in a diluent of hyaluronic acid (EG-1962) compared to the current standard of care, oral nimodipine, in subjects with an aneurysmal subarachnoid hemorrhage (aSAH).
Fifty-four patients were randomized to receive EG-1962 and 18 patients were randomized to receive oral nimodipine.
The primary endpoint was to establish the maximum tolerated dose, which has been determined to be 800 mg. […] The secondary endpoint of characterizing the pharmacokinetics of EG-1962 was also met. The steady-state plasma concentration measured in patients treated with EG-1962 was below 30 ng/ml, the level of plasma concentration observed to cause systemic hypotension.

On to `COCCOC(=O)C1=C(C)NC(C)=C(C(=O)OC(C)C)C1c1cccc([N+](=O)[O-])c1` (racemic) [Mod I, Nimodipine], for which the solubility in water in series [1] is listed as 0.036±0.007 mg 100 mL^−1. Turning to `COCCOC(=O)C1=C(C)NC(C)=C(C(=O)OC(C)C)C1c1cccc([N+](=O)[O-])c1` (stereo not shown) [nimodipine, isopropyl(2-methoxyethyl)-1,4-dihydro-2,6-dimethyl-4-(3-nitrophenyl)-3,5-pyridinedicarboxylate], in series [2] (at 90 days, pooled efficacy results), the “patients who achieved a favorable outcome (scores of 6-8, Extended Glasgow Outcome Score [GOSE])” value is recorded as 28%. In addition, the “patients who experienced drug-related hypotension” value in series [2] (human, in vivo) came to 17%. Take `COCCOC(=O)C1=C(C)NC(C)=C(C(=O)OC(C)C)C1c1cccc([N+](=O)[O-])c1` (stereo not shown) [Mod II, Nimodipine]: in series [1], the solubility in water is 0.018±0.004 mg 100 mL^−1.
